Measured values: ChEMBL document CHEMBL1201862, “PubChem BioAssay data set” (2004)
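Exposure lasted 48 hours, with cells grown in 96-well plates and compounds tested at five concentrations. GI50 marks 50% less growth.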 The source made the active and inactive calls. Rule as the data show it: active = GI50 up to about 1.1 µM and inactive = higher.

Tests used:
Experiment in all cases: inhibition of tumour cell growth, NCI panel, 48 h
[1] = test system: KM12
[2] = test system: LXFL 529
[3] = test system: Malme-3M
[4] = test system: KM-20L2
[5] = test system: COLO 205
[6] = test system: MOLT-4
[7] = test system: ACHN
[8] = test system: SNB-75
[9] = test system: SR
[10] = test system: SF-268
[11] = test system: OVCAR-3
[12] = test system: A549
[13] = test system: SK-MEL-28
[14] = test system: M14
[15] = test system: NCI-H522
[16] = test system: SF-539
[17] = test system: SF-295
[18] = test system: CCRF-CEM
[19] = test system: 786-0
[20] = test system: HOP-92
[21] = test system: OVCAR-5
[22] = test system: SW-620
[23] = test system: NCI-H226
[24] = test system: SNB-19
[25] = test system: HT-29
[26] = test system: SK-OV-3
[27] = test system: XF498
[28] = test system: DLD-1
[29] = test system: HCT-116
[30] = test system: TK-10
[31] = test system: SK-MEL-2
[32] = test system: RXF 393
[33] = test system: M19-MEL
[34] = test system: HOP-62
[35] = test system: DMS-273
[36] = test system: SNB-78
[37] = test system: A498
[38] = test system: K562
[39] = test system: HL-60
[40] = test system: U-251
[41] = test system: SN12C
[42] = test system: UO-31
[43] = test system: HCT-15
[44] = test system: HOP-18
[45] = test system: UACC-62
[46] = test system: EKVX
[47] = test system: HCC 2998
[48] = test system: DMS-114
[49] = test system: LOX IMVI
[50] = test system: IGROV-1
[51] = test system: RPMI-8226
[52] = test system: NCI-H23
[53] = test system: OVCAR-8
[54] = test system: UACC-257
[55] = test system: CAKI-1
[56] = test system: OVCAR-4
[57] = test system: NCI-H460
[58] = test system: SK-MEL-5

## CCOC(=O)N1CCc2cc(OC)c(OC)cc2/C1=C\c1ccc(OC)c(OC)c1
[1]
  GI50: 29.6 µM (inactive)
[2]
  GI50: 29.5 µM (inactive)
[3]
  GI50: 20.2 µM (inactive)
[4]
  GI50: 21.2 µM (inactive)
[5]
  GI50: 21.6 µM (inactive)
[6]
  GI50: 27.7 µM (inactive)
[7]
  GI50: 26.3 µM (inactive)
[8]
  GI50: 27 µM (inactive)
[9]
  GI50: 29.1 µM (inactive)
[10]
  GI50: 37.8 µM (inactive)
[11]
  GI50: 26 µM (inactive)
[12]
  GI50: 26.8 µM (inactive)
[13]
  GI50: 33.3 µM (inactive)
[14]
  GI50: > 10 µM (inactive)
[15]
  GI50: 25 µM (inactive)
[16]
  GI50: 23.2 µM (inactive)
[17]
  GI50: 22.9 µM (inactive)
[18]
  GI50: 20.7 µM (inactive)
[19]
  GI50: 19.9 µM (inactive)
[20]
  GI50: 15.8 µM (inactive)
[21]
  GI50: 38.3 µM (inactive)
[22]
  GI50: 32.7 µM (inactive)
[23]
  GI50: 23.4 µM (inactive)
[24]
  GI50: 39.2 µM (inactive)
[25]
  GI50: 19 µM (inactive)
[26]
  GI50: 54 µM (inactive)
[27]
  GI50: > 10 µM (inactive)
[28]
  GI50: 37 µM (inactive)
[29]
  GI50: 21.9 µM (inactive)
[30]
  GI50: 25.2 µM (inactive)
[31]
  GI50: 12.1 µM (inactive)
[32]
  GI50: 17.1 µM (inactive)
[33]
  GI50: 26.1 µM (inactive)
[34]
  GI50: 41.6 µM (inactive)
[35]
  GI50: 25.5 µM (inactive)
[36]
  GI50: 35.7 µM (inactive)
[37]
  GI50: 23.2 µM (inactive)
[38]
  GI50: > 10 µM (inactive)
[39]
  GI50: 19.5 µM (inactive)
[40]
  GI50: 30.3 µM (inactive)
[41]
  GI50: 26.4 µM (inactive)
[42]
  GI50: 21 µM (inactive)
[43]
  GI50: 31 µM
[44]
  GI50: 29.5 µM (inactive)
[45]
  GI50: 22.9 µM (inactive)
[46]
  GI50: 28.1 µM (inactive)
[47]
  GI50: 33.3 µM (inactive)
[48]
  GI50: 35.3 µM (inactive)
[49]
  GI50: 18.8 µM (inactive)
[50]
  GI50: 45.5 µM (inactive)
[51]
  GI50: 24.4 µM (inactive)
[52]
  GI50: 39 µM (inactive)
[53]
  GI50: 30.1 µM (inactive)
[54]
  GI50: 23.6 µM (inactive)

## CCCCCCCCCCOC(=O)c1cc[n+](C)cc1
[1]
  GI50: 16.9 µM (inactive)
[2]
  GI50: 16.3 µM (inactive)
[3]
  GI50: 17.1 µM (inactive)
[5]
  GI50: 16.7 µM (inactive)
[6]
  GI50: 18.2 µM (inactive)
[7]
  GI50: 18.6 µM (inactive)
[8]
  GI50: 19.3 µM (inactive)
[9]
  GI50: 16.3 µM (inactive)
[10]
  GI50: 20 µM (inactive)
[11]
  GI50: 15.6 µM (inactive)
[55]
  GI50: 16.6 µM (inactive)
[12]
  GI50: 17 µM (inactive)
[13]
  GI50: 17.4 µM (inactive)
[14]
  GI50: 18 µM (inactive)
[15]
  GI50: 16.1 µM (inactive)
[16]
  GI50: 16.3 µM (inactive)
[56]
  GI50: 18.1 µM (inactive)
[17]
  GI50: 16.7 µM (inactive)
[18]
  GI50: 17.5 µM (inactive)
[19]
  GI50: 17.6 µM (inactive)
[20]
  GI50: 15.8 µM (inactive)
[21]
  GI50: 13.6 µM (inactive)
[22]
  GI50: 19.1 µM (inactive)
[23]
  GI50: 18.1 µM (inactive)
[57]
  GI50: 21 µM (inactive)
[24]
  GI50: 16.2 µM (inactive)
[58]
  GI50: 19.1 µM (inactive)
[25]
  GI50: 16.7 µM (inactive)
[26]
  GI50: 16 µM (inactive)
[27]
  GI50: 17.5 µM (inactive)
[28]
  GI50: 18.5 µM (inactive)
[29]
  GI50: 18.3 µM (inactive)
[30]
  GI50: 17.1 µM (inactive)
[31]
  GI50: 17.3 µM (inactive)
[32]
  GI50: 19.7 µM (inactive)
[33]
  GI50: 17.8 µM (inactive)
[34]
  GI50: 16.8 µM (inactive)
[35]
  GI50: 17.3 µM (inactive)
[36]
  GI50: 17.9 µM (inactive)
[37]
  GI50: 15.6 µM (inactive)
[38]
  GI50: 16.3 µM (inactive)
[39]
  GI50: 17.8 µM (inactive)
[40]
  GI50: 15.7 µM (inactive)
[41]
  GI50: 16.9 µM (inactive)
[42]
  GI50: 16.5 µM (inactive)
[43]
  GI50: 15.9 µM
[44]
  GI50: 42.7 µM (inactive)
[45]
  GI50: 16.8 µM (inactive)
[46]
  GI50: 16.7 µM (inactive)
[48]
  GI50: 18 µM (inactive)
[49]
  GI50: 17.6 µM (inactive)
[50]
  GI50: 16.6 µM (inactive)
[51]
  GI50: 16.3 µM (inactive)
[52]
  GI50: 19.9 µM (inactive)
[53]
  GI50: 17.2 µM (inactive)
[54]
  GI50: 19.8 µM (inactive)

## COc1ccc(C2=CC3CCC2C3)cc1 (stereo not drawn)
[1]
  GI50: > 100 µM (inactive)
[2]
  GI50: 0.0535 µM (active)
[3]
  GI50: > 100 µM (inactive)
[5]
  GI50: > 100 µM (inactive)
[6]
  GI50: > 100 µM (inactive)
[7]
  GI50: > 100 µM (inactive)
[8]
  GI50: > 100 µM (inactive)
[9]
  GI50: > 100 µM (inactive)
[10]
  GI50: > 100 µM (inactive)
[11]
  GI50: > 100 µM (inactive)
[55]
  GI50: > 100 µM (inactive)
[12]
  GI50: > 100 µM (inactive)
[13]
  GI50: > 100 µM (inactive)
[14]
  GI50: > 100 µM (inactive)
[15]
  GI50: > 100 µM (inactive)
[16]
  GI50: > 100 µM (inactive)
[56]
  GI50: > 100 µM (inactive)
[17]
  GI50: > 100 µM (inactive)
[18]
  GI50: > 100 µM (inactive)
[19]
  GI50: > 100 µM (inactive)
[20]
  GI50: 59.8 µM (inactive)
[21]
  GI50: > 100 µM (inactive)
[22]
  GI50: > 100 µM (inactive)
[57]
  GI50: > 100 µM (inactive)
[24]
  GI50: > 100 µM (inactive)
[58]
  GI50: > 100 µM (inactive)
[25]
  GI50: > 100 µM (inactive)
[26]
  GI50: 12.2 µM (inactive)
[27]
  GI50: > 100 µM (inactive)
[28]
  GI50: > 100 µM (inactive)
[29]
  GI50: > 100 µM (inactive)
[30]
  GI50: > 100 µM (inactive)
[31]
  GI50: > 100 µM (inactive)
[32]
  GI50: > 100 µM (inactive)
[34]
  GI50: > 100 µM (inactive)
[35]
  GI50: > 100 µM (inactive)
[36]
  GI50: > 100 µM (inactive)
[37]
  GI50: 77.3 µM (inactive)
[38]
  GI50: > 100 µM (inactive)
[39]
  GI50: 50 µM (inactive)
[40]
  GI50: > 100 µM (inactive)
[41]
  GI50: > 100 µM (inactive)
[42]
  GI50: > 100 µM (inactive)
[43]
  GI50: > 100 µM
[44]
  GI50: > 100 µM (inactive)
[45]
  GI50: > 100 µM (inactive)
[46]
  GI50: > 100 µM (inactive)
[49]
  GI50: > 100 µM (inactive)
[50]
  GI50: > 100 µM (inactive)
[51]
  GI50: > 100 µM (inactive)
[52]
  GI50: > 100 µM (inactive)
[53]
  GI50: > 100 µM (inactive)
[54]
  GI50: > 100 µM (inactive)

## COC(OC)c1cccc2c1C(=O)CCC1(O)c3ccccc3C1C2 (stereo not drawn)
[1]
  GI50: 74 µM (inactive)
[2]
  GI50: 86.3 µM (inactive)
[3]
  GI50: > 100 µM (inactive)
[5]
  GI50: > 100 µM (inactive)
[6]
  GI50: 65.5 µM (inactive)
[8]
  GI50: > 100 µM (inactive)
[9]
  GI50: > 100 µM (inactive)
[10]
  GI50: > 100 µM (inactive)
[11]
  GI50: 7.52 µM (inactive)
[12]
  GI50: > 100 µM (inactive)
[13]
  GI50: > 100 µM (inactive)
[14]
  GI50: > 100 µM (inactive)
[15]
  GI50: > 100 µM (inactive)
[16]
  GI50: > 100 µM (inactive)
[56]
  GI50: > 100 µM (inactive)
[17]
  GI50: 42.1 µM (inactive)
[18]
  GI50: 44.9 µM (inactive)
[19]
  GI50: > 100 µM (inactive)
[21]
  GI50: > 100 µM (inactive)
[22]
  GI50: > 100 µM (inactive)
[23]
  GI50: 83.8 µM (inactive)
[24]
  GI50: > 100 µM (inactive)
[58]
  GI50: > 100 µM (inactive)
[25]
  GI50: > 100 µM (inactive)
[26]
  GI50: > 100 µM (inactive)
[27]
  GI50: > 100 µM (inactive)
[28]
  GI50: > 100 µM (inactive)
[29]
  GI50: 33.7 µM (inactive)
[30]
  GI50: > 100 µM (inactive)
[31]
  GI50: > 100 µM (inactive)
[33]
  GI50: > 100 µM (inactive)
[34]
  GI50: > 100 µM (inactive)
[35]
  GI50: > 100 µM (inactive)
[36]
  GI50: > 100 µM (inactive)
[38]
  GI50: 55.5 µM (inactive)
[39]
  GI50: 35.2 µM (inactive)
[41]
  GI50: > 100 µM (inactive)
[42]
  GI50: > 100 µM (inactive)
[43]
  GI50: > 100 µM
[44]
  GI50: 91.6 µM (inactive)
[45]
  GI50: > 100 µM (inactive)
[46]
  GI50: > 100 µM (inactive)
[47]
  GI50: > 100 µM (inactive)
[48]
  GI50: 39.1 µM (inactive)
[49]
  GI50: > 100 µM (inactive)
[50]
  GI50: > 100 µM (inactive)
[51]
  GI50: 12.2 µM (inactive)
[52]
  GI50: 78.9 µM (inactive)
[53]
  GI50: > 100 µM (inactive)
[54]
  GI50: 84.1 µM (inactive)
